Results published in patent US20260265321A1, “PEPTIDE AND POLYPEPTIDE INHIBITING THE NF-KB SIGNALING PATHWAY” (Centre National de la Recherche Scientifique, priority 2023, published 2026).
Read-outs that look alike come from different tables or passages of the source. Residues, ends and D or L forms follow the SMILES beside them.

Tests used:
IKKβ(1-669) EE homodimer = target: T1, IKKβ(1-669) EE homodimer (Homo sapiens, UniProt O14920, S177E/S181E); assay: Isothermal titration calorimetry (ITC) of peptide binding to IKKβ homodimer; settings: for N (binding stoichiometry of IKKβ: pep) / TΔS / ΔG / ΔH: 25° C.; for N (binding stoichiometry of IKKβ: pep): 1:1 binding model
T1 construct: a nearly full-length (residues 1-669) and constitutively active (S177E/S181E) mutant construct of human IKKβ; 6×His (followed by TEV site) (N, cleaved yes); made in house; host or cells: Sf21 insect cells (baculovirus)
T1 sequence (O14920 1-669 S177E/S181E): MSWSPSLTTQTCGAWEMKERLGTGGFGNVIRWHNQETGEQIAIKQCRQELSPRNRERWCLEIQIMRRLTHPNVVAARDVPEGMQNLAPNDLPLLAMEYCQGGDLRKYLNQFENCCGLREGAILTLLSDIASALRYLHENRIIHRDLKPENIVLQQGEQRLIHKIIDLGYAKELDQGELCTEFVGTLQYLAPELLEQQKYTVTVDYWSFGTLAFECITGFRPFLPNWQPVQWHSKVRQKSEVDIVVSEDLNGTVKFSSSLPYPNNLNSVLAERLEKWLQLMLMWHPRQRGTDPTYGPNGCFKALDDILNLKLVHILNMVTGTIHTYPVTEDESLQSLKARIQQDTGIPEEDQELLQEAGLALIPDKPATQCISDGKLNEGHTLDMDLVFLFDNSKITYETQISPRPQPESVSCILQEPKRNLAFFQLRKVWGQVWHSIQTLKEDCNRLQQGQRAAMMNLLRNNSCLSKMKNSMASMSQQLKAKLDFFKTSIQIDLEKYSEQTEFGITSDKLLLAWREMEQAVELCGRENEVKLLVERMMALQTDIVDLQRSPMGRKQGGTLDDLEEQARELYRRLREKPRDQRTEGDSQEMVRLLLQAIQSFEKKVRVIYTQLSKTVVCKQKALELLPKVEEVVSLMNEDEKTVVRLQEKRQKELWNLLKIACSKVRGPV
Protocol: All experiments were performed in ITC buffer (20 mM HEPES pH 8.0, 150 mM NaCl, 1 mM TCEP) unless otherwise stated. Purified IKKα(10-667) EE and IKKβ(1-669) EE protein samples were dialyzed overnight against ITC buffer at 4° C. Just before the ITC experiments, IKKα or IKKβ samples were concentrated, incubated at room temperature for 30 minutes and centrifuged at 11000 g to remove eventual precipitate. The final concentrations of IKKα and IKKβ in the sample cell varied between 22 and 50 μM depending on the measurement. HPLC purified synthetic peptides (IκBα pep) comprising residues 297-317 of IκBα were further desalted using a Nap5 (GE Healthcare, #17-0853-01) column equilibrated in milliQ water, lyophilized and then resuspended in ITC buffer. The concentration of peptides in the syringe varied between 220 and 975 μM depending on the measurement.
All ITC measurements were performed using a PEAQ-ITC MALVERN instrument. The titration parameters were set as following: temperature 25° C., reference power 10 μcal/s, feedback=high, stirring speed 750 RPM, initial delay 60 s, first injection 0.4 μl in 0.8 s and the remaining 19 injections were 2 μL in 4 s with 120 s of spacing. The data were fitted to a 1:1 binding model. All data were processed using NITPIC software and global fitting of two datasets was carried out using SEDPHAD.
To evaluate binding affinities, isothermal titration calorimetry (ITC) experiments were performed using a synthetic peptide that comprises the YDDφXφ motif plus the N-terminal acidic patch (residues 297-317, named IκBα pep hereafter) and purified IKKβ(1-669) EE homodimer or an equivalent construct of the IKKα homodimer (i.e. IKKα(10-667) S176E/S180E, named IKKα(10-667) EE hereafter). […] ITC analyses on the IKKα/β heterodimer were prevented by strong aggregation propensity at the concentrations required for these experiments.
All ITC experiments were performed at 25° C. The data were fitted to a 1:1 binding model. N refers to the binding stoichiometry of IKKα/β: pep, meaning that approximately half of total IKKα/β concentration binds pep ligand in agreement with the dimer form of IKKα/β being binding competent. The values for the IKKα interaction with IRF7 pep should be regarded as estimates due to low affinity and weakly exothermic binding, and therefore high experimental error and fitting uncertainty. All data were processed using NITPIC software and global fitting of two datasets was carried out using SEDPHAD.

6×His-IKKβ(1-669) EE = target: T2, 6×His-IKKβ(1-669) EE (Homo sapiens, UniProt O14920, S177E/S181E); assay: MBP-pulldown of recombinant IKKβ by MBP-peptide fusions; format: binding; settings: 0.3 μM IKKβ, Western blot
T2 construct: a nearly full-length (residues 1-669) and constitutively active (S177E/S181E) mutant construct of human IKKβ; made in house; host or cells: Sf21 insect cells (baculovirus)
T2 sequence (O14920 1-669 S177E/S181E): T1 sequence (O14920 1-669 S177E/S181E)
Protocol: Experiments were performed in PD buffer (20 mM Tris pH 8.0, 150 mM NaCl, 2 mM DTT). For each experiment, 10 μl of amylose resin (dry bead volume) coupled to MBP-fusion constructs were incubated with […] of purified 6×His-IKKα(10-667) EE and 6×His-IKKβ (1-669) EE constructs adjusted at a concentration of 0.3 μM for 2 hours at 4° C. After two quick washing steps with PD buffer, complexes were eluted by incubation with 20 μl of the same buffer supplemented with 20 mM maltose for 15 minutes at 4° C. After mild centrifugation, supernatants were recovered and migrated onto two separate 10% SDS-PAGE gels. One gel was used for Western blot analysis to detect His-IKKα or His-IKKβ using and anti-6×His antibody (Sigma, #SAB4301134), the other for Coomassie staining to detect MBP-fusion proteins. Quantification of band intensity was done using the Image J software.

Row | enhancement of affinity to IKKβ relative to IκBα pep wt (IKKβ(1-669) EE homodimer; ITC) | Kd (IKKβ(1-669) EE homodimer; ITC, IKKβ, read-out: KD) | interaction with IKKβ by pulldown (6×His-IKKβ(1-669) EE) | SMILES | N (binding stoichiometry of IKKβ: pep) (IKKβ(1-669) EE homodimer; ITC) | TΔS (IKKβ(1-669) EE homodimer; ITC, IKKβ) | ΔG (IKKβ(1-669) EE homodimer; ITC, IKKβ) | ΔH (IKKβ(1-669) EE homodimer; ITC, IKKβ) | Kd (IKKβ(1-669) EE homodimer)
1 | 15 fold | 2.6 µM | clearly enhance binding to IKKβ | CC(C)C[C@H](NC(=O)[C@@H](NC(=O)[C@H](CC(C)C)NC(=O)[C@H](CCCNC(=N)N)NC(=O)[C@H](CCC(N)=O)NC(=O)CNC(=O)CNC(=O)[C@H](Cc1ccccc1)NC(=O)[C@@H](NC(=O)[C@H](CC(C)C)NC(=O)[C@H](CC(=O)O)NC(=O)[C@H](CC(=O)O)NC(=O)[C@H](Cc1ccc(O)cc1)NC(=O)[C@@H]1CCCN1C(=O)[C@H](CC(C)C)NC(=O)[C@H](CCC(=O)O)NC(=O)[C@H](CC(=O)O)NC(=O)[C@H](CCC(=O)O)NC(=O)[C@@H](NC(=O)[C@H](Cc1ccccc1)NC(=O)[C@@H](N)CCC(=O)O)[C@@H](C)O)C(C)C)[C@@H](C)O)C(=O)O [IkBα pep C308L] (H-EFTEDELPYDDLVFGGQRLTL-OH; N-terminus and C-terminus assumed) | 0.63 | -4.59 kcal/mol | -7.61 kcal/mol | -12.2 kcal/mol | 
2 |  |  |  | CC(C)C[C@H](NC(=O)[C@@H](NC(=O)[C@H](CC(C)C)NC(=O)[C@H](CCCNC(=N)N)NC(=O)[C@H](CCC(N)=O)NC(=O)CNC(=O)CNC(=O)[C@H](Cc1ccccc1)NC(=O)[C@@H](NC(=O)[C@H](CS)NC(=O)[C@H](CC(=O)O)NC(=O)[C@H](CC(=O)O)NC(=O)[C@H](Cc1ccc(O)cc1)NC(=O)[C@@H]1CCCN1C(=O)[C@H](CC(C)C)NC(=O)[C@H](CCC(=O)O)NC(=O)[C@H](CC(=O)O)NC(=O)[C@H](CCC(=O)O)NC(=O)[C@@H](NC(=O)[C@H](Cc1ccccc1)NC(=O)[C@@H](N)CCC(=O)O)[C@@H](C)O)C(C)C)[C@@H](C)O)C(=O)O [IκBα pep] (H-EFTEDELPYDDCVFGGQRLTL-OH; N-terminus and C-terminus assumed) | 0.58 | -9.78 kcal/mol | -6.00 kcal/mol | -15.8 kcal/mol | 40 µM
